Experimental data published in PMC8401933 (Molecules, 2021).

Legend:
Test in all cases: KINOMEscan binding
Conditions in all cases: read-out: Percent Control
SBK1 = target: T1, SBK1 (Homo sapiens, UniProt Q52WX2)
T1 construct: purchased Eurofins DiscoverX KINOMEscan

RIPK4 = target: T2, RIPK4 (Homo sapiens, UniProt P57078)
T2 construct: purchased Eurofins DiscoverX KINOMEscan

KIT(D816V) = target: T3, KIT(D816V) (Homo sapiens, UniProt P10721, D816V)
T3 construct: purchased Eurofins DiscoverX KINOMEscan
T3 sequence (P10721 26-976 D816V): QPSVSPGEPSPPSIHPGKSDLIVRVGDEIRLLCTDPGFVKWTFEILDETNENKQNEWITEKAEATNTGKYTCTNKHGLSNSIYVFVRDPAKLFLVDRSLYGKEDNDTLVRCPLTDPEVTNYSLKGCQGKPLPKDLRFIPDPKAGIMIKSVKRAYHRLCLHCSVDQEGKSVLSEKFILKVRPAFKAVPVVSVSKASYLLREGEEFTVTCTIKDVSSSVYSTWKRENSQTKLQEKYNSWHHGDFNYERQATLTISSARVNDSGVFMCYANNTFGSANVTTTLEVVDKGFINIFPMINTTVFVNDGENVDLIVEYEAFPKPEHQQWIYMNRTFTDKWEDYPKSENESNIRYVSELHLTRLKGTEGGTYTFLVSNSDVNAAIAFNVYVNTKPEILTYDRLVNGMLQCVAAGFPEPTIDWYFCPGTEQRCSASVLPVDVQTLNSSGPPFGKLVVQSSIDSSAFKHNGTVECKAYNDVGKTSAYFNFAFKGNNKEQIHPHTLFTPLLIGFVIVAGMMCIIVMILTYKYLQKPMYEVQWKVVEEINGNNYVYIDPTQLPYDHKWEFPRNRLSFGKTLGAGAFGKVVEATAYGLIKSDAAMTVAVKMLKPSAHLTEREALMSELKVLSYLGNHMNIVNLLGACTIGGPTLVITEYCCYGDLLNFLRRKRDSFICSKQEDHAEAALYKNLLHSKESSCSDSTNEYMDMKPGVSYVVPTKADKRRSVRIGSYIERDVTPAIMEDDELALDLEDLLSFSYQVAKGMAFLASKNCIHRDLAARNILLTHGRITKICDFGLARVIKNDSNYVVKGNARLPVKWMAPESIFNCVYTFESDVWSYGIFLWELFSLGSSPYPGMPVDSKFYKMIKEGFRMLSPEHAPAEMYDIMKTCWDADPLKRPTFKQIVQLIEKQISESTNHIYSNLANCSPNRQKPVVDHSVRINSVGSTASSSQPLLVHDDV

YANK2 = target: T4, YANK2 (Homo sapiens, UniProt Q9NY57)
T4 construct: purchased Eurofins DiscoverX KINOMEscan

CAMKK1 = target: T5, CAMKK1 (Homo sapiens, UniProt Q8N5S9)
T5 construct: purchased Eurofins DiscoverX KINOMEscan

[1] = target: T6, ABL1(F317I)-nonphosphorylated (Homo sapiens, UniProt P00519, F317I)
T6 construct: purchased Eurofins DiscoverX KINOMEscan

BRAF(V600E) = target: T7, BRAF(V600E) (Homo sapiens, UniProt P15056, V600E)
T7 construct: purchased Eurofins DiscoverX KINOMEscan

[2] = target: T8, ABL1(H396P)-phosphorylated (Homo sapiens, UniProt P00519, H396P)
T8 construct: purchased Eurofins DiscoverX KINOMEscan

MYLK4 = target: T9, MYLK4 (Homo sapiens, UniProt Q86YV6)
T9 construct: purchased Eurofins DiscoverX KINOMEscan

CHEK2 = target: T10, CHEK2 (Homo sapiens, UniProt O96017)
T10 construct: purchased Eurofins DiscoverX KINOMEscan

RET(V804L) = target: T11, RET(V804L) (Homo sapiens, UniProt P07949, V804L)
T11 construct: purchased Eurofins DiscoverX KINOMEscan

MARK3 = target: T12, MARK3 (Homo sapiens, UniProt P27448)
T12 construct: purchased Eurofins DiscoverX KINOMEscan

VEGFR2 = target: T13, VEGFR2 (Homo sapiens, UniProt P35968)
T13 construct: purchased Eurofins DiscoverX KINOMEscan
T13 sequence (P35968 20-1356): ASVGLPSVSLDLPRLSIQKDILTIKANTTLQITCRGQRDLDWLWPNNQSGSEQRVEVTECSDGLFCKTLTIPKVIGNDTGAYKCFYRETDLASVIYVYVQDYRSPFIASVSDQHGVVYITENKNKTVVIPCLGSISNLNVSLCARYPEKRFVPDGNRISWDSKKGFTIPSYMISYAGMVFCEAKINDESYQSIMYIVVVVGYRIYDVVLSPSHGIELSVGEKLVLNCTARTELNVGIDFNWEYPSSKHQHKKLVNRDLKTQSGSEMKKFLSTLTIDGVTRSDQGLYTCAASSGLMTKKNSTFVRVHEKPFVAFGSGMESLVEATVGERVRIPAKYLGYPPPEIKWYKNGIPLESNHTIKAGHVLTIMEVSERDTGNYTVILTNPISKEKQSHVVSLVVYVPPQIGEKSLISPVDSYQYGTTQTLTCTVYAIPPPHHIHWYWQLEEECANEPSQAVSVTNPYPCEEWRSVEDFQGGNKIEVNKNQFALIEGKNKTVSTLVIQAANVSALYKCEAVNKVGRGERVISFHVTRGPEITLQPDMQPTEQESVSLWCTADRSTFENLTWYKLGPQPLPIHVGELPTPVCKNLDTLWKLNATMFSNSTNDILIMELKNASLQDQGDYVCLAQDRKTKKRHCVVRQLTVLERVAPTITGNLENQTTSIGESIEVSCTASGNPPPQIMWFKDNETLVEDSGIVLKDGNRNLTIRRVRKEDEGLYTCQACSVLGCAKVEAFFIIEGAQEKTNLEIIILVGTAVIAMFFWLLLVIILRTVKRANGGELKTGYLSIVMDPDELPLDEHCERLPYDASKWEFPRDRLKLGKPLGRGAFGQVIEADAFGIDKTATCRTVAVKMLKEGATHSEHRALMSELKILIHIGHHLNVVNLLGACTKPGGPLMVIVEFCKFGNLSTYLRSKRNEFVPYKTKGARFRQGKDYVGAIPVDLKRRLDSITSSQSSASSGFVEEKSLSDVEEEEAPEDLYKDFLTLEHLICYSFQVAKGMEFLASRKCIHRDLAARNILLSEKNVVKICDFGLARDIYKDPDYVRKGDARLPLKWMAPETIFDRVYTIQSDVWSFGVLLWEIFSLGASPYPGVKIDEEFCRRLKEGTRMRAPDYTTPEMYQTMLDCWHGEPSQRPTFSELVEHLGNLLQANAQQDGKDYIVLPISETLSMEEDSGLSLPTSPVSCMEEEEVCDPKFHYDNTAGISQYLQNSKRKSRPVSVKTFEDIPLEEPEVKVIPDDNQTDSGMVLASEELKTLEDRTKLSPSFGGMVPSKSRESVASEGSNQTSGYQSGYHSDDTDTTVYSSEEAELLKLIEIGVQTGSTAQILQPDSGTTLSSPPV

PRKG1 = target: T14, PRKG1 (Homo sapiens, UniProt Q13976)
T14 construct: purchased Eurofins DiscoverX KINOMEscan

NEK9 = target: T15, NEK9 (Homo sapiens, UniProt Q8TD19)
T15 construct: purchased Eurofins DiscoverX KINOMEscan
T15 sequence (Q8TD19 whole entry): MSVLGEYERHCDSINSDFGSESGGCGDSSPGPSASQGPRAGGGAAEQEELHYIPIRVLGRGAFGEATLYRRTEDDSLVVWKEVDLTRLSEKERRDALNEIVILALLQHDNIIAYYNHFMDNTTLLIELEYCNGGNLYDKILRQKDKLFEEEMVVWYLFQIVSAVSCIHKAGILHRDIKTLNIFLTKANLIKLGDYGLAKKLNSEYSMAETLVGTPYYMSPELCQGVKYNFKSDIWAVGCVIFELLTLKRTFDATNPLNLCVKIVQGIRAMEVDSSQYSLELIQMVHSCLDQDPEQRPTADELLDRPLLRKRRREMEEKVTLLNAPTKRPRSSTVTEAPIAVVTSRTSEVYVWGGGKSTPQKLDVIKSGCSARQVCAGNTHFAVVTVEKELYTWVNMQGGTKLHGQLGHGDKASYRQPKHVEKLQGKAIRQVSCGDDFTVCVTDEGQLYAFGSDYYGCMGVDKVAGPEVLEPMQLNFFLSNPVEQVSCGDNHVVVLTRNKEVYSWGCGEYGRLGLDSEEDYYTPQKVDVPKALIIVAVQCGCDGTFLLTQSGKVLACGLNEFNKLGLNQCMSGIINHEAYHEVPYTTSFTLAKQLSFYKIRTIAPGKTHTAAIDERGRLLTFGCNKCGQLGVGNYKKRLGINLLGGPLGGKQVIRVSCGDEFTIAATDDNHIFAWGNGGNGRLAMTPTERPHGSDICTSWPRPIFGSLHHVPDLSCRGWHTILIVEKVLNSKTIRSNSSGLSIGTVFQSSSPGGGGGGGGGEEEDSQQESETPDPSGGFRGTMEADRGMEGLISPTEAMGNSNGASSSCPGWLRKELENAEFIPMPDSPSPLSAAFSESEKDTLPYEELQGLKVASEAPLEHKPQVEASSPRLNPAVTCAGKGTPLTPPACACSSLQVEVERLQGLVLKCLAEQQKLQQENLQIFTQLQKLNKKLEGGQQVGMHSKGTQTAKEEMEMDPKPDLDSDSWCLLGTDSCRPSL

NEK2 = target: T16, NEK2 (Homo sapiens, UniProt P51955)
T16 construct: purchased Eurofins DiscoverX KINOMEscan

FLT3-autoinhibited = target: T17, FLT3-autoinhibited (Homo sapiens, UniProt P36888)
T17 construct: purchased Eurofins DiscoverX KINOMEscan

[3] = target: T18, RSK4(Kin.Dom.1-N-terminal) (Homo sapiens, UniProt Q9UK32)
T18 construct: RSK4(Kin.Dom.1-N-terminal); purchased Eurofins DiscoverX KINOMEscan

AURKB = target: T19, AURKB (Homo sapiens, UniProt Q96GD4)
T19 construct: purchased Eurofins DiscoverX KINOMEscan

p38-gamma = target: T20, p38-gamma (Homo sapiens, UniProt P53778)
T20 construct: purchased Eurofins DiscoverX KINOMEscan

NEK6 = target: T21, NEK6 (Homo sapiens, UniProt Q9HC98)
T21 construct: purchased Eurofins DiscoverX KINOMEscan

EPHB4 = target: T22, EPHB4 (Homo sapiens, UniProt P54760)
T22 construct: purchased Eurofins DiscoverX KINOMEscan

KIT-autoinhibited = target: T23, KIT-autoinhibited (Homo sapiens, UniProt P10721)
T23 construct: purchased Eurofins DiscoverX KINOMEscan
T23 sequence (P10721 26-976): as the sequence (P10721 26-976 D816V) above, with V791D counted along it

MARK2 = target: T24, MARK2 (Homo sapiens, UniProt Q7KZI7)
T24 construct: purchased Eurofins DiscoverX KINOMEscan

CDK7 = target: T25, CDK7 (Homo sapiens, UniProt P50613)
T25 construct: purchased Eurofins DiscoverX KINOMEscan

GRK1 = target: T26, GRK1 (Homo sapiens, UniProt Q15835)
T26 construct: purchased Eurofins DiscoverX KINOMEscan

ACVR2A = target: T27, ACVR2A (Homo sapiens, UniProt P27037)
T27 construct: purchased Eurofins DiscoverX KINOMEscan

PAK3 = target: T28, PAK3 (Homo sapiens, UniProt O75914)
T28 construct: purchased Eurofins DiscoverX KINOMEscan

PKAC-alpha = target: T29, PKAC-alpha (Homo sapiens, UniProt P17612)
T29 construct: purchased Eurofins DiscoverX KINOMEscan

DCAMKL3 = target: T30, DCAMKL3 (Homo sapiens, UniProt Q9C098)
T30 construct: purchased Eurofins DiscoverX KINOMEscan

KIT(V559D,V654A) = target: T31, KIT(V559D,V654A) (Homo sapiens, UniProt P10721, V559D/V654A)
T31 construct: purchased Eurofins DiscoverX KINOMEscan
T31 sequence (P10721 26-976 V559D/V654A): as the sequence (P10721 26-976 D816V) above, with V534D, V629A, V791D counted along it

DYRK2 = target: T32, DYRK2 (Homo sapiens, UniProt Q92630)
T32 construct: purchased Eurofins DiscoverX KINOMEscan

PIP5K1C = target: T33, PIP5K1C (Homo sapiens, UniProt O60331)
T33 construct: purchased Eurofins DiscoverX KINOMEscan

MAP4K3 = target: T34, MAP4K3 (Homo sapiens, UniProt Q8IVH8)
T34 construct: purchased Eurofins DiscoverX KINOMEscan

ACVR1 = target: T35, ACVR1 (Homo sapiens, UniProt Q04771)
T35 construct: purchased Eurofins DiscoverX KINOMEscan

PFTK1 = target: T36, PFTK1 (Homo sapiens, UniProt O94921)
T36 construct: purchased Eurofins DiscoverX KINOMEscan
T36 sequence (O94921 whole entry): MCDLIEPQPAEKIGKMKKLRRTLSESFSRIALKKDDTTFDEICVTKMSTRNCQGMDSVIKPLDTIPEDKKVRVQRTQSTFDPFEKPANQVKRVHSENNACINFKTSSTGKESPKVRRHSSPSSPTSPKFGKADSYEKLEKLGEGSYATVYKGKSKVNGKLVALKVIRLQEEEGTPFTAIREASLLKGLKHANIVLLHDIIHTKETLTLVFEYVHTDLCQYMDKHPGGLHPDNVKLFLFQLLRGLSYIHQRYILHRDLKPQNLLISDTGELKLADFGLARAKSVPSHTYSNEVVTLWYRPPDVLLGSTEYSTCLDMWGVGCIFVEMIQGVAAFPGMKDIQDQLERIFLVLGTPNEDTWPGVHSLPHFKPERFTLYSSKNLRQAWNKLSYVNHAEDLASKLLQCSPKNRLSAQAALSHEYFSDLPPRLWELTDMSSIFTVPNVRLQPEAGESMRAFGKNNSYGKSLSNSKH

YANK3 = target: T37, YANK3 (Homo sapiens, UniProt Q86UX6)
T37 construct: purchased Eurofins DiscoverX KINOMEscan

CAMK1D = target: T38, CAMK1D (Homo sapiens, UniProt Q8IU85)
T38 construct: purchased Eurofins DiscoverX KINOMEscan

ERBB3 = target: T39, ERBB3 (Homo sapiens, UniProt P21860)
T39 construct: purchased Eurofins DiscoverX KINOMEscan

ERBB4 = target: T40, ERBB4 (Homo sapiens, UniProt Q15303)
T40 construct: purchased Eurofins DiscoverX KINOMEscan

ACVR2B = target: T41, ACVR2B (Homo sapiens, UniProt Q13705)
T41 construct: purchased Eurofins DiscoverX KINOMEscan

ERK3 = target: T42, ERK3 (Homo sapiens, UniProt Q16659)
T42 construct: purchased Eurofins DiscoverX KINOMEscan

DAPK2 = target: T43, DAPK2 (Homo sapiens, UniProt Q9UIK4)
T43 construct: purchased Eurofins DiscoverX KINOMEscan
T43 sequence (Q9UIK4 whole entry): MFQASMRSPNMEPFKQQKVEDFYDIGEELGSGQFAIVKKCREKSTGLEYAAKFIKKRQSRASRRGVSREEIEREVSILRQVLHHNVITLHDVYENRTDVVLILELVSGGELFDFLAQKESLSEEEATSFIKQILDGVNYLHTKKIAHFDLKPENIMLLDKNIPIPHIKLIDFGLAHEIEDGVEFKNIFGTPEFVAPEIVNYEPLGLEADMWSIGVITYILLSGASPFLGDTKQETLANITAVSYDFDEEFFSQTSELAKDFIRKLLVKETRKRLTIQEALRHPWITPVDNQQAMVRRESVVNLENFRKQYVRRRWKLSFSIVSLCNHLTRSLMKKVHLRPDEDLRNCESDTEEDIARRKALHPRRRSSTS

T2 sequence (P57078 whole entry): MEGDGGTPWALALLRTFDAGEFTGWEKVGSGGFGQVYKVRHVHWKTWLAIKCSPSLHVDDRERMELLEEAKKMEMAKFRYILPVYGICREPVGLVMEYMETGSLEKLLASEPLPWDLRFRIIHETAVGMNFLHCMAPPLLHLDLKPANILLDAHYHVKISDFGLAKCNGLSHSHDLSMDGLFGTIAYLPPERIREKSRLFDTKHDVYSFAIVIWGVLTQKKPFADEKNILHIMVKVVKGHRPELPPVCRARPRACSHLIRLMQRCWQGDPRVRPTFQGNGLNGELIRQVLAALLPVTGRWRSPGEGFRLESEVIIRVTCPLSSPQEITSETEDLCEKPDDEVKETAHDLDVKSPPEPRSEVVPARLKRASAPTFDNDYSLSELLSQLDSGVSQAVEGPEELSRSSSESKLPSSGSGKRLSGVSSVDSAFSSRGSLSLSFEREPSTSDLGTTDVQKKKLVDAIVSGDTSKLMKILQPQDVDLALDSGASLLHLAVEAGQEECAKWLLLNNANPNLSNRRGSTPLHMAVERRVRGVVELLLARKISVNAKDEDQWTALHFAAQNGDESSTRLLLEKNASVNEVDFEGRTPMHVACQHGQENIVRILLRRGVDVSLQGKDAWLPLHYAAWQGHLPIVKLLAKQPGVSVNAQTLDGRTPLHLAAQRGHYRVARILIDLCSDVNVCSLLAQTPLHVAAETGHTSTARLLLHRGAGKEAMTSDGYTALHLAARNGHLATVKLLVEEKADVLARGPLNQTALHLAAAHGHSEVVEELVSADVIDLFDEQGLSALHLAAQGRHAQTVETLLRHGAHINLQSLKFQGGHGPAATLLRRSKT

`CC(C)NC(=O)COc1cccc(-c2nc(Nc3ccc4[nH]ncc4c3)c3ccccc3n2)c1` [KD025, 2-(3-(4-((1H-indazol-5-yl)amino)quinazolin-2-yl)phenoxy)-N-isopropylacetamide] was tested, and the remaining binding at 10 µM (SBK1) was 100%, the remaining binding at 10 µM (RIPK4) was 100% and the remaining binding at 10 µM (KIT(D816V)) was 57%. For the same compound, the remaining binding at 10 µM (YANK2) was 88%, the remaining binding at 10 µM (CAMKK1) was 94% and the remaining binding at 10 µM [1] was 98%. For the same compound, the remaining binding at 10 µM (BRAF(V600E)) was 91%, the remaining binding at 10 µM [2] was 82% and the remaining binding at 10 µM (MYLK4) was 17%. It also gave a remaining binding at 10 µM (CHEK2) of 99%, a remaining binding at 10 µM (RET(V804L)) of 67% and a remaining binding at 10 µM (MARK3) of 92%. It also gave a remaining binding at 10 µM (VEGFR2) of 76%, a remaining binding at 10 µM (PRKG1) of 100% and a remaining binding at 10 µM (NEK9) of 85%. The remaining binding at 10 µM (NEK2) was 83%, the remaining binding at 10 µM (FLT3-autoinhibited) was 71% and the remaining binding at 10 µM [3] was 93%. It also gave a remaining binding at 10 µM (AURKB) of 61%, a remaining binding at 10 µM (p38-gamma) of 60% and a remaining binding at 10 µM (NEK6) of 80%. For the same compound, the remaining binding at 10 µM (EPHB4) was 95%, the remaining binding at 10 µM (KIT-autoinhibited) was 78% and the remaining binding at 10 µM (MARK2) was 71%. For the same compound, the remaining binding at 10 µM (CDK7) was 76%, the remaining binding at 10 µM (GRK1) was 64% and the remaining binding at 10 µM (ACVR2A) was 99%. The remaining binding at 10 µM (PAK3) was 77%, the remaining binding at 10 µM (PKAC-alpha) was 100% and the remaining binding at 10 µM (DCAMKL3) was 64%. For the same compound, the remaining binding at 10 µM (KIT(V559D,V654A)) was 92%, the remaining binding at 10 µM (DYRK2) was 86% and the remaining binding at 10 µM (PIP5K1C) was 47%. The remaining binding at 10 µM (MAP4K3) was 78%, the remaining binding at 10 µM (ACVR1) was 32% and the remaining binding at 10 µM (PFTK1) was 77%. The remaining binding at 10 µM (YANK3) was 76%, the remaining binding at 10 µM (CAMK1D) was 100% and the remaining binding at 10 µM (ERBB3) was 79%. It also gave a remaining binding at 10 µM (ERBB4) of 57%, a remaining binding at 10 µM (ACVR2B) of 91% and a remaining binding at 10 µM (ERK3) of 64%. The remaining binding at 10 µM (DAPK2) was 100%.
